Experimental data published in US20100003246A1, “Novel heterocyclic compounds and uses therof” (priority 2008, published 2010).

Molecular target: T1, b-Raf(V600E) (Homo sapiens, UniProt P15056, V600E)
T1 construct: made in house
Experiment: Raf/Mek Amplified Luminescence Proximity Homogeneous Assay (Alpha Screen), b-Raf(V600E)
Format: biochemical
Conditions: mutant b-Raf(V600E), read-out: mut-b-RAF (IC50 in uM)
Summary of the method: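 Active b-Raf(V600E) (~4 pM) pre-incubated 60 min at room temperature with compound and kinase-dead biotinylated Mek (~10 nM) in Tris pH 7.5, MgCl2, BSA, DTT; ATP-started reaction ran 3 h, EDTA-stopped. Phospho-MEK detected by anti-p-MEK AlphaScreen luminescence; IC50 by non-linear regression.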

T1 sequence (P15056 whole entry V600E): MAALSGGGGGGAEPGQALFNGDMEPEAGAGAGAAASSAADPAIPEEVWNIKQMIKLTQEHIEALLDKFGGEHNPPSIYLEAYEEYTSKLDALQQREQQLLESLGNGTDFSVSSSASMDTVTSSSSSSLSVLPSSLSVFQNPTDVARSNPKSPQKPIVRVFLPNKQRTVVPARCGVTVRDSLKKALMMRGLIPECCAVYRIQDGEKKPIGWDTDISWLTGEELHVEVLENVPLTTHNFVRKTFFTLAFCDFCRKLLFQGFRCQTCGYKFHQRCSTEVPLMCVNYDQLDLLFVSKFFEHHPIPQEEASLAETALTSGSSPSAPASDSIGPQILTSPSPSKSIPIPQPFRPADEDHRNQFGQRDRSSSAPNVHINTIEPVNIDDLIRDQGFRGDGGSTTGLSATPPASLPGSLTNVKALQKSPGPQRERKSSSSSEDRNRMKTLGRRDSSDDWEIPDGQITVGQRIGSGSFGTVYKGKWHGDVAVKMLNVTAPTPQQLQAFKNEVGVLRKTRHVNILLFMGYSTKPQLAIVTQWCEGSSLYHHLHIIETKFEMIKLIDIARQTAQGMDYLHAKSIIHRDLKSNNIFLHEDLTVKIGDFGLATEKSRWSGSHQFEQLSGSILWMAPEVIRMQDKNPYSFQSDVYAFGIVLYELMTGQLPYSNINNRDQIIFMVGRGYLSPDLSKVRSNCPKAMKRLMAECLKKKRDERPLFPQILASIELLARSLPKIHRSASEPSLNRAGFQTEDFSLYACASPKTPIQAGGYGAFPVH

Row | Compound | IC50 [µM]
1 | COCC(=O)NCCNc1nccc(-c2nc(-c3ccc(F)cc3)[nH]c2-c2cnc3[nH]cc(Cl)c3c2)n1 [Compound 160, N-(2-(4-(5-(3-chloro-1H-pyrrolo[2,3-b]pyridin-5-yl)-2-(4-fluorophenyl)-1H-imidazol-4-yl)pyrimidin-2-ylamino)ethyl)-2-methoxyacetamide] | 0.0003
2 | COCCNc1nccc(-c2nc(-c3ccc(F)cc3)[nH]c2-c2cnc(N)c(OC)c2)n1 [Compound 161, 4-(5-(6-amino-5-methoxypyridin-3-yl)-2-(4-fluorophenyl)-1H-imidazol-4-yl)-N-(2-methoxyethyl)pyrimidin-2-amine] | 0.0022
3 | COc1cc(-c2nc(C3CCOCC3)[nH]c2-c2ccncc2)cnc1N [Compound 162, 3-methoxy-5-(5-(pyridin-4-yl)-2-(tetrahydro-2H-pyran-4-yl)-1H-imidazol-4-yl)pyridin-2-amine] | 0.0055
4 | COc1cc(-c2[nH]c(-c3ccc(F)cc3)nc2-c2ccnc(NC3CCCC3)n2)cnc1N [Compound 164, 4-(5-(6-amino-5-methoxypyridin-3-yl)-2-(4-fluorophenyl)-1H-imidazol-4-yl)-N-cyclopentylpyrimidin-2-amine] | 0.0163
5 | COc1cc(-c2[nH]c(-c3ccc(F)cc3)nc2-c2ccnc(NC3CCCCC3)n2)cnc1N [Compound 165, 4-(5-(6-amino-5-methoxypyridin-3-yl)-2-(4-fluorophenyl)-1H-imidazol-4-yl)-N-cyclohexylpyrimidin-2-amine] | 0.0483
6 | COCC(=O)NCCNc1nccc(-c2nc(-c3ccc(F)cc3)[nH]c2-c2cnc3[nH]cc(Br)c3c2)n1 [Compound 166, N-(2-(4-(5-(3-bromo-1H-pyrrolo[2,3-b]pyridin-5-yl)-2-(4-fluorophenyl)-1H-imidazol-4-yl)pyrimidin-2-ylamino)ethyl)-2-methoxyacetamide] | 0.0001
7 | COc1cc(-c2[nH]c(-c3ccc4[nH]ncc4c3)nc2-c2ccncc2)cnc1N [Compound 167, 5-(2-(1H-indazol-5-yl)-4-(pyridin-4-yl)-1H-imidazol-5-yl)-3-methoxypyridin-2-amine] | 0.0007
8 | COc1cc(-c2[nH]c(-c3cccc4cccnc34)nc2-c2ccncc2)cnc1N [Compound 168] | 0.0009
9 | COc1cc(-c2[nH]c(-c3cccc4ncccc34)nc2-c2ccncc2)cnc1N [Compound 169, 3-methoxy-5-(4-(pyridin-4-yl)-2-(quinolin-5-yl)-1H-imidazol-5-yl)pyridin-2-amine] | 0.0016
10 | COc1cc(-c2[nH]c(-c3cccc(-c4ccncc4)c3)nc2-c2ccncc2)cnc1N [Compound 170, 3-methoxy-5-(4-(pyridin-4-yl)-2-(3-(pyridin-4-yl)phenyl)-1H-imidazol-5-yl)pyridin-2-amine] | 0.0002
11 | COc1cc(-c2nc(-c3ccc(F)cc3)[nH]c2-c2ccnc(Nc3cccc(C(F)(F)F)c3)n2)cnc1N [Compound 171, 4-(4-(6-amino-5-methoxypyridin-3-yl)-2-(4-fluorophenyl)-1H-imidazol-5-yl)-N-(3-(trifluoromethyl)phenyl) pyrimidin-2-amine] | 0.0013
12 | COc1cc(-c2nc(-c3ccc(F)cc3)[nH]c2-c2ccnc(Nc3cccc(F)c3)n2)cnc1N [Compound 172, 4-(4-(6-amino-5-methoxypyridin-3-yl)-2-(4-fluorophenyl)-1H-imidazol-5-yl)-N-(3-fluorophenyl)pyrimidin-2-amine] | 0.0014
13 | COc1cc(-c2nc(-c3ccc(F)cc3)[nH]c2-c2ccnc(C#N)c2)cnc1N [Compound 173, 4-(4-(6-amino-5-methoxypyridin-3-yl)-2-(4-fluorophenyl)-1H-imidazol-5-yl)picolinonitrile] | 0.197
14 | CCNc1nccc(-c2nc(-c3ccc(F)cc3)[nH]c2-c2cnc(N)c(OC)c2)n1 [Compound 174, 4-(5-(6-amino-5-methoxypyridin-3-yl)-2-(4-fluorophenyl)-1H-imidazol-4-yl)-N-ethylpyrimidin-2-amine] | 0.0023
15 | CCCNc1nccc(-c2nc(-c3ccc(F)cc3)[nH]c2-c2cnc(N)c(OC)c2)n1 [Compound 175, 4-(5-(6-amino-5-methoxypyridin-3-yl)-2-(4-fluorophenyl)-1H-imidazol-4-yl)-N-propylpyrimidin-2-amine] | 0.0012
16 | CC[C@H](C)Nc1nccc(-c2nc(-c3ccc(F)cc3)[nH]c2-c2cnc(N)c(OC)c2)n1 [Compound 176, (S)-4-(5-(6-amino-5-methoxypyridin-3-yl)-2-(4-fluorophenyl)-1H-imidazol-4-yl)-N-sec-butylpyrimidin-2-amine] | 0.0046
17 | CC(=O)c1cc(-c2[nH]c(-c3ccc(F)cc3)nc2-c2ccncc2)cnc1N [Compound 177, 1-(2-amino-5-(2-(4-fluorophenyl)-4-(pyridin-4-yl)-1H-imidazol-5-yl)pyridin-3-yl)ethanone] | 0.003

Row | Compound | IC50 [µM]
18 | COc1cc(-c2[nH]c(-c3ccc4[nH]ccc4c3)nc2-c2ccncc2)cnc1N [Compound 178, 5-(2-(1H-indol-5-yl)-4-(pyridin-4-yl)-1H-imidazol-5-yl)-3-methoxypyridin-2-amine] | 0.0009
19 | COCCCNc1nccc(-c2nc(-c3ccc(F)cc3)[nH]c2-c2cnc(N)c(OC)c2)n1 [Compound 179, 4-(5-(6-amino-5-methoxypyridin-3-yl)-2-(4-fluorophenyl)-1H-imidazol-4-yl)-N-(3-methoxypropyl)pyrimidin-2-amine] | 0.001
20 | COc1cc(-c2[nH]c(-c3ccc(F)cc3)nc2-c2ccnc(O)n2)cnc1N [Compound 180, 4-(5-(6-amino-5-methoxypyridin-3-yl)-2-(4-fluorophenyl)-1H-imidazol-4-yl)pyrimidin-2-ol] | 0.892
21 | CC[C@@H](C)Nc1nccc(-c2nc(-c3ccc(F)cc3)[nH]c2-c2cnc(N)c(OC)c2)n1 [Compound 181, (R)-4-(5-(6-amino-5-methoxypyridin-3-yl)-2-(4-fluorophenyl)-1H-imidazol-4-yl)-N-sec-butylpyrimidin-2-amine] | 0.0099
22 | Cc1c[nH]c2ncc(-c3[nH]c(-c4ccc(F)cc4)nc3-c3ccncc3)cc12 [Compound 182, 5-(2-(4-fluorophenyl)-4-(pyridin-4-yl)-1H-imidazol-5-yl)-3-methyl-1H-pyrrolo[2,3-b]pyridine] | 0.0002
23 | COc1cc(-c2[nH]c(-c3ccc(F)cc3)nc2-c2ccnc(NCC3CC3)n2)cnc1N [Compound 183, 4-(5-(6-amino-5-methoxypyridin-3-yl)-2-(4-fluorophenyl)-1H-imidazol-4-yl)-N-(cyclopropylmethyl) pyrimidin-2-amine] | 0.0007
24 | COc1cc(-c2nc(C(C)(C)C)[nH]c2-c2ccnc(Nc3ccc(N4C[C@@H](C)O[C@@H](C)C4)nc3)n2)cnc1N [Compound 184, 4-(4-(6-amino-5-methoxypyridin-3-yl)-2-tert-butyl-1H-imidazol-5-yl)-N-(6-((2R,6S)-2,6-dimethylmorpholino)-pyridin-3-yl)pyrimidin-2-amine] | 0.0003
25 | COc1cc(-c2nc(C(C)(C)C)[nH]c2-c2ccnc(N[C@@H]3CCN(C(C)=O)C3)n2)cnc1N [Compound 185, (R)-1-(3-(4-(4-(6-amino-5-methoxypyridin-3-yl)-2-tert-butyl-1H-imidazol-5-yl)pyrimidin-2-ylamino)pyrrolidin-1-yl)ethanone] | 0.0032
26 | COc1cc(-c2nccc(-c3[nH]c(C(C)(C)C)nc3-c3cnc(N)c(OC)c3)n2)cnc1N [Compound 186, 5-(4-(4-(6-amino-5-methoxypyridin-3-yl)-2-tert-butyl-1H-imidazol-5-yl)pyrimidin-2-yl)-3-methoxypyridin-2-amine] | 0.0299
27 | COc1cc(-c2[nH]c(-c3ccc(F)cc3)nc2-c2ccnc(Nc3ccc(N4C[C@@H](C)O[C@@H](C)C4)nc3)n2)cnc1N [Compound 187, 4-(5-(6-amino-5-methoxypyridin-3-yl)-2-(4-fluorophenyl)-1H-imidazol-4-yl)-N-(6-((2S,6R)-2,6-dimethylmorpholino)-pyridin-3-yl)pyrimidin-2-amine] | 0.0005
28 | COc1cc(-c2nc(C(C)(C)C)[nH]c2-c2ccnc(Nc3ccc4c(c3)OC(F)(F)O4)n2)cnc1N [Compound 189, 4-(4-(6-amino-5-methoxypyridin-3-yl)-2-tert-butyl-1H-imidazol-5-yl)-N-(2,2-difluorobenzo[d][1,3]dioxol-5-yl)pyrimidin-2-amine] | 0.0003
29 | COc1cc(-c2nc(C(C)(C)C)[nH]c2-c2ccnc(Nc3cccc(OC(F)(F)F)c3)n2)cnc1N [Compound 190, 4-(4-(6-amino-5-methoxypyridin-3-yl)-2-tert-butyl-1H-imidazol-5-yl)-N-(3-(trifluoromethoxy)phenyl) pyrimidin-2-amine] | 0.0003
30 | COc1cc(-c2nc(C(C)(C)C)[nH]c2-c2ccnc(Nc3cccc(C(F)(F)F)c3)n2)cnc1N [Compound 191, 4-(4-(6-amino-5-methoxypyridin-3-yl)-2-tert-butyl-1H-imidazol-5-yl)-N-(3-(trifluoromethyl)phenyl) pyrimidin-2-amine] | 0.0004
31 | COc1ccc(CNc2nccc(-c3[nH]c(C(C)(C)C)nc3-c3cnc(N)c(OC)c3)n2)cc1 [Compound 192, 4-(4-(6-amino-5-methoxypyridin-3-yl)-2-tert-butyl-1H-imidazol-5-yl)-N-(4-methoxybenzyl)pyrimidin-2-amine] | 0.0002
32 | COc1cc(-c2[nH]c(-c3ccc(F)cc3)nc2-c2ccnc(N[C@@H]3CCN(C(C)=O)C3)n2)cnc1N [Compound 193, (R)-1-(3-(4-(5-(6-amino-5-methoxypyridin-3-yl)-2-(4-fluorophenyl)-1H-imidazol-4-yl)pyrimidin-2-ylamino)pyrrolidin-1-yl)ethanone] | 0.038
33 | COc1cc(-c2[nH]c(-c3ccc(F)cc3)nc2-c2ccnc(N[C@H]3CCN(C(C)=O)C3)n2)cnc1N [Compound 194, (S)-1-(3-(4-(5-(6-amino-5-methoxypyridin-3-yl)-2-(4-fluorophenyl)-1H-imidazol-4-yl)pyrimidin-2-ylamino)pyrrolidin-1-yl)ethanone] | 0.008
